In ChEMBL document CHEMBL3045599, “SYNTHESIS, ANOREXIGENIC ACTIVITY AND QSAR OF SUBSTITUTED ARYLOXYPROPANOLAMINES” (Med Chem Res, 2004) one finds Activity data, which are given here for 16 molecules.

SMILES strings stand for the structures. Activity calls are given as the source filed them. The calls are words filed in the database; no cut-off is given here.

Data set [1] has as its system Mus musculus. Put plainly: Antidepressant activity in Mus musculus Swiss (mouse) at 75 umol/kg, ip. The format is functional, organism-based.
Data set [2] has as its system Mus musculus. Put plainly: Effect on CNS in Mus musculus Swiss (mouse) assessed as reversal of resperine-induced sedation at 75 umol/kg, ip. The data set is classed as ADME, organism-based, Central nervous system. The following applies: in vivo.
The test system of data set [3] is Mus musculus. The data set is described as follows: Effect on CNS in Mus musculus Swiss (mouse) assessed as reversal of resperine-induced ptosis at 75 umol/kg, ip. The format is ADME, organism-based, Central nervous system. Particulars: in vivo.
Data set [4] deals with Mus musculus. Put plainly: Effect on CNS in Mus musculus Swiss (mouse) assessed as gross behavioural effects at 75 umol/kg, ip. The format is ADME, organism-based, Central nervous system. The following applies: in vivo.
Data set [5] relates to Mus musculus. Put plainly: Anorexigenic activity in Mus musculus Swiss (mouse) at 75 umol/kg, ip measured for 15 min relative to control. The format is functional.

For the molecule `CC(=O)c1ccc(OCC(O)CN(C)CCC(Oc2ccc(C(F)(F)F)cc2)c2ccccc2)cc1` (stereo not drawn), in the data set with Mus musculus [1], the outcome was inactive. The Activity result in the data set on Mus musculus [2] is “Non-toxic”; in the data set on Mus musculus [3], “Non-toxic”; with Mus musculus [4], “Non-toxic”; in the data set with Mus musculus [5], 32%.
For the molecule `COc1ccc(OCC(O)CN(C)CCC(Oc2ccc(C(F)(F)F)cc2)c2ccccc2)cc1` (stereo not drawn), the result in the data set with Mus musculus [1] was inactive. For the same molecule, the Activity result in the data set on Mus musculus [2] was “Non-toxic”; with Mus musculus [3] it was “Non-toxic”; in the data set on Mus musculus [4], “Non-toxic”; with Mus musculus [5] it was 52%.
For the molecule `CN(CCC(Oc1ccc(C(F)(F)F)cc1)c1ccccc1)CC(O)COc1ccc2ccccc2c1` (stereo not drawn), the result with Mus musculus [1] was inactive. In addition, the Activity entry with Mus musculus [2] is on record as “Non-toxic”; in the data set with Mus musculus [3] it was “Non-toxic”; with Mus musculus [4], “Non-toxic”; in the data set on Mus musculus [5], 40%.
`CNCCC(Oc1ccc(C(F)(F)F)cc1)c1ccccc1` (stereo not drawn) [FLUOXETINE]: the values for the Activity in the data set on Mus musculus [2], in the data set on Mus musculus [3] and in the data set on Mus musculus [5] were 100%, 100% and 72%, respectively.
As to `CN(CCC(Oc1ccc(C(F)(F)F)cc1)c1ccccc1)CC(O)COc1ccc(C(F)(F)F)cc1` (stereo not drawn), in the data set on Mus musculus [1], the result was inactive. The Activity result in the data set with Mus musculus [2] is recorded as “Non-toxic”; in the data set on Mus musculus [3], “Non-toxic”; with Mus musculus [4], “Non-toxic”; with Mus musculus [5], 32%.
As to `CN(CCC(Oc1ccc(C(F)(F)F)cc1)c1ccccc1)CC(O)COc1ccc(C=O)cc1` (stereo not drawn), the outcome with Mus musculus [1] was inactive. In addition, the Activity result in the data set on Mus musculus [2] is “Non-toxic”; in the data set with Mus musculus [3] it was “Non-toxic”; in the data set on Mus musculus [4], “Non-toxic”; in the data set with Mus musculus [5], 40%.
With `CN(CCC(Oc1ccc(C(F)(F)F)cc1)c1ccccc1)CC(O)COc1ccc(Br)cc1` (stereo not drawn), in the data set with Mus musculus [1], the outcome was inactive. The Activity entry in the data set on Mus musculus [2] is “Non-toxic”; in the data set with Mus musculus [3], “Non-toxic”; with Mus musculus [4], “Non-toxic”; in the data set on Mus musculus [5], 60%.
In the case of `CCC(=O)c1ccc(OCC(O)CN(C)CCC(Oc2ccc(C(F)(F)F)cc2)c2ccccc2)cc1` (stereo not drawn), in the data set with Mus musculus [1], the result was inactive. The Activity result is listed as “Non-toxic” in the data set on Mus musculus [2], “Non-toxic” in the data set with Mus musculus [3], “Non-toxic” in the data set with Mus musculus [4] and 36% with Mus musculus [5].
`CN(CCC(Oc1ccc(C(F)(F)F)cc1)c1ccccc1)CC(O)COc1cccc(C(F)(F)F)c1` (stereo not drawn): the outcome with Mus musculus [1] was inactive. Besides, the Activity result with Mus musculus [2] was “Non-toxic”; in the data set with Mus musculus [3], “Non-toxic”; with Mus musculus [4], “Non-toxic”; with Mus musculus [5], 32%.
For the molecule `COc1ccccc1OCC(O)CN(C)CCC(Oc1ccc(C(F)(F)F)cc1)c1ccccc1` (stereo not drawn), in the data set with Mus musculus [1], the outcome was inactive. For the same molecule, the Activity result in the data set on Mus musculus [2] is recorded as “Non-toxic”; with Mus musculus [3], “Non-toxic”; in the data set with Mus musculus [4] it was “Non-toxic”; in the data set on Mus musculus [5], 56%.
`CCNc1ccc(OCC(O)CN(C)CCC(Oc2ccc(C(F)(F)F)cc2)c2ccccc2)cc1` (stereo not drawn): the result in the data set on Mus musculus [1] was inactive. For the same molecule, the Activity result is given as “Non-toxic” in the data set with Mus musculus [2], “Non-toxic” in the data set on Mus musculus [3], “Non-toxic” with Mus musculus [4] and 60% with Mus musculus [5].
In the case of `CN(CCC(Oc1ccc(C(F)(F)F)cc1)c1ccccc1)CC(O)COc1ccc(Cl)cc1` (stereo not drawn), the result in the data set with Mus musculus [1] was inactive. In addition, the Activity entry with Mus musculus [2] is “Non-toxic”; in the data set on Mus musculus [3], “Non-toxic”; with Mus musculus [4] it was “Non-toxic”; in the data set with Mus musculus [5], 28%.
Turning to `CC(=O)Nc1ccc(OCC(O)CN(C)CCC(Oc2ccc(C(F)(F)F)cc2)c2ccccc2)cc1` (stereo not drawn), the result in the data set on Mus musculus [1] was inactive. For the same molecule, the Activity entry is on record as “Non-toxic” with Mus musculus [2], “Non-toxic” with Mus musculus [3], “Non-toxic” in the data set with Mus musculus [4] and 60% in the data set with Mus musculus [5].
As for `Cc1ccccc1OCC(O)CN(C)CCC(Oc1ccc(C(F)(F)F)cc1)c1ccccc1` (stereo not drawn), the outcome with Mus musculus [1] was inactive. Moreover, the Activity result is reported as “Non-toxic” in the data set with Mus musculus [2], “Non-toxic” in the data set with Mus musculus [3], “Non-toxic” in the data set with Mus musculus [4] and 60% in the data set with Mus musculus [5].
For the molecule `CN(CCC(Oc1ccc(C(F)(F)F)cc1)c1ccccc1)CC(O)COc1ccc(C#N)cc1` (stereo not drawn), in the data set on Mus musculus [1], the outcome was Active. Also, the Activity entry with Mus musculus [2] is “Non-toxic”; with Mus musculus [3], “Non-toxic”; in the data set with Mus musculus [4] it was “Non-toxic”; in the data set on Mus musculus [5], 72%.
Turning to `CN(CCC(Oc1ccc(C(F)(F)F)cc1)c1ccccc1)CC(O)COc1ccccc1` (stereo not drawn), the result in the data set on Mus musculus [1] was inactive. Also, the Activity entry in the data set on Mus musculus [2] is reported as “Non-toxic”; in the data set with Mus musculus [3], “Non-toxic”; in the data set with Mus musculus [4] it was “Non-toxic”; in the data set on Mus musculus [5], 52%.
